For one molecule, inhibition and IC50 results are on record in publication PMC10224329, “Design, Synthesis, and Antiproliferative Activity of Benzopyran-4-One-Isoxazole Hybrid Compounds” (Molecules, 2023).

Assay type in all cases: cell-based
Assay [1] has as its system normal pig kidney (LLCPK) cell lines. The experiment in a line: MTS cell viability assay, non-cancerous cells. To be noted: Sus scrofa, conjugates at 25 μM, 72 h. An excerpt: (§1) The compounds were further screened for their in vitro cytotoxicity against non-cancerous normal cell lines, viz., human embryonic kidney (HEK-293) and normal pig kidney (LLCPK) cell lines. These cell lines were selected to determine whether the compounds had selectivity against cancerous cells in contrast to non-cancerous cells. The data obtained is shown in Figure 3a–b (cf. Supplementary Materials for the data obtained for intermediates and starting materials Figure S28.7–S28.8, page no. 77–78).
(§2) Cell viability assays were performed using the MTS protocol. The in vitro cytotoxicity of the conjugates was evaluated using six human cancer cell lines, one human normal kidney cell line, and one mammalian normal kidney cell line, which included human leukemia carcinoma cell lines (CCRF-CEM), human ovarian adenocarcinoma cell lines (SKOV-3), human breast tumor cell lines (MDA-MB-231), human prostate cancer cell lines (PC-3), androgen-independent human prostate cancer cell lines (DU-145), human renal carcinoma (iSLK), human embryonic kidney cell lines (HEK-293), and normal mammalian kidney cell line (LLCPK) to determine the toxicity of the synthesized conjugates. CCRF-CEM cells were seeded at 50,000 cells in 0.1 mL per well in 96-well plates, and in the case of SKOV-3, MDA-MB-231, PC-3, DU-145, HEK-293, and LLCPK cell lines, the cells were seeded at 5000 cells in 0.1 mL per well in 96-well plates. The CCRF-CEM cells were seeded in RPMI-1640 media containing 2mM L-glutamine, 1.5 g/L sodium bicarbonate, supplemented with fetal bovine serum (FBS) 10% media, SKOV-3, MDA-MB-231, and LLCPK cells were seeded in MEME media with Earle’s salts and sodium bicarbonate, without L-glutamine, supplemented with fetal bovine serum (FBS) 10%, PC-3 cells were seeded in DMEM:F-12 containing 1:1 mixture with L-glutamine with HEPES, supplemented with fetal bovine serum (FBS) 10%, and DU-145 and HEK-293 cells were seeded in DMEM containing 4500 mg/L glucose, L-glutamine, and sodium bicarbonate, without sodium pyruvate, supplemented with FBS (10%), 24 h prior to the experiment. The compounds at a final concentration of 25 µM (higher concentration stock solution prepared in DMSO) were added to each well in triplicate and incubated for 24 and 72 h at 37 °C in a humidified atmosphere (95% air and 5% CO2). The cell viability was then determined by measuring the absorbance of the formazan product at 490 nm using a microplate reader using a SpectraMax M2 microplate spectrophotometer, Molecular Devices, San Jose, CA, USA. The percentage of cell survival was calculated as [(OD value of cells treated with the test mixture of compounds) − (OD value of culture medium)]/[(OD value of control cells) − (OD value of culture medium)] × 100%. IC50 values of compounds were calculated using non-linear regression analysis in GraphPad Prism (Boston, MA, USA).
(In general: Formazan colour is commonly taken as a measure of viable cells.)

Assay [2] has as its system human embryonic kidney (HEK-293) cell lines. Put plainly: MTS cell viability assay, non-cancerous cells. To be noted: Homo sapiens.
Source text: as §1, §2

Assay [3] relates to panel of cancer cell lines (CCRF-CEM, SKOV-3, MDA-MB-231, PC-3, DU-145, iSLK). Put plainly: MTS cell viability assay, summary over the cancer cell line panel. To be noted: Homo sapiens. The procedure:
(§3) All the 14 hybrid compounds synthesized via Scheme 1, along with the intermediates and starting compounds, were tested in vitro for their cytotoxicity against a panel of 6 human cancer cell lines. This panel involved human leukemia carcinoma (CCRF-CEM), human ovarian adenocarcinoma (SKOV-3), human breast tumor (MDA-MB-231), human prostate cancer (PC-3), androgen-independent human prostate cancer (DU-145), and human renal carcinoma (iSLK) cell lines. The compounds were tested at a concentration of 25 μM for incubation periods of 24 and 72 h. Standard anticancer drug doxorubicin at a concentration of 5 μM and DMSO were used as controls in all the cell assays. The antiproliferative profile of benzopyran-4-one-isoxazole conjugates is shown in Figure 2 (cf. Supplementary Materials for the data obtained for intermediates and starting materials Figure S28.1–S28.6, page no. 71–76).
as §2

The subject of assay [4] is human prostate cancer (PC-3) cell lines. The experiment in a line: MTS cell viability assay. The procedure: as §3, §2
Assay [5] deals with human breast tumor (MDA-MB-231) cell lines. The experiment in a line: MTS cell viability assay. The procedure: as §3, §2
Assay [6] has as its system human renal carcinoma (iSLK) cell lines. The experiment in a line: MTS cell viability assay. To be noted: Homo sapiens; conjugates at 25 μM, 72 h; read-out: Inhibition of Cancer Cell Lines iSLK. The procedure: as §3, §2
For assay [7], the system named is human leukemia carcinoma (CCRF-CEM) cell lines. The experiment in a line: MTS cell viability assay. To be noted: Homo sapiens, CCRF-CEM. On the procedure:
as §3, §2

The subject of assay [8] is androgen-independent human prostate cancer (DU-145) cell lines. Put plainly: MTS cell viability assay. The procedure: as §3, §2
The subject of assay [9] is human ovarian adenocarcinoma (SKOV-3) cell lines. Put plainly: MTS cell viability assay. To be noted: SK-OV-3, conjugates at 25 μM, 72 h, read-out: Inhibition of Cancer Cell Lines SKOV-3. The procedure: as §3, §2
Setting [10] is: average of three independent tests in triplicate.

Structures are written as SMILES.

As usually defined, the inhibition is the drop in the measured response relative to a control, in per cent. As usually defined, the IC50 is the concentration needed to halve the response being measured. Take `Cc1noc(C)c1C(=O)OCc1coc2ccccc2c1=O` [Compound 5a, (4-Oxo-4H-1-benzopyran-3-yl)methyl 3,5-dimethylisoxazole-4-carboxylate]: the inhibition at 25 µM in [1] is 57%; in [2] (HEK293, conjugates at 25 μM, 72 h), 37%; in assay [3] (25 μM, 72 h, range over six cancer cell lines, read-out: percentage of inhibition (range over the cancer cell lines)) it was 44 to 81%; in assay [4] (conjugates at 25 μM, 72 h), 70%; in [5] (conjugates at 25 μM, 72 h, read-out: Inhibition of Cancer Cell Lines MDA-MB-231), 78%; in [6], 44%. The inhibition at 25 µM in assay [7] (conjugates at 25 μM, 72 h, read-out: Inhibition of Cancer Cell Lines CCRF-CEM) is 81%; in assay [8] (conjugates at 25 μM, 72 h), 73%; in [9], 69%. Also, the IC50 was 293 µM in assay [2] (HEK293, normal HEK-293 cells, average of three independent tests in triplicate); 5.6 to 17.8 µM in assay [3] (range over CCRF-CEM, MDA-MB-231, PC3, DU-145, read-out: IC50 against all the cancer cell lines (range)); 17.8 µM in assay [4] (PC3, average of three independent tests in triplicate); 5.6 µM in [5] (setting [10]); 11.6 µM in assay [7] (setting [10]); 15.3 µM in assay [8] (setting [10]).
